From patent US8859580B2 (Boehringer Ingelheim International GmbH, priority 2007, dated 2014) come the findings set out here.

The target in this experiment is T1, 11β-HSD1 (Homo sapiens, UniProt P28845).
T1 construct: detecting cortisol generated from cortisterone by human liver microsomes; from tissue; host or cells: human liver microsomes
Put plainly: In vitro inhibition of 11β-HSD1, HTRF detection of cortisol generated from cortisone by human liver microsomes. Type of experiment: biochemical. The note with it: 1 hour at 37° C., pH 6.0, NADPH 200 μM, cortisone 80 nM, inhibition relative to carbenoxolone signal. In outline: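 Inhibition expressed against the carbenoxolone signal and fitted to IC50 curves. Readout: HTRF competition between microsomal cortisol and XL665-labelled cortisol for Eu-cryptate anti-cortisol antibody (typically 2 h), with emission ratio 665/615 calibrated to cortisol concentration.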
(In TR-FRET formats the signal depends on donor and acceptor labels being close together.)

Read-outs that look alike come from different tables or passages of the source.

T1 sequence (P28845 whole entry): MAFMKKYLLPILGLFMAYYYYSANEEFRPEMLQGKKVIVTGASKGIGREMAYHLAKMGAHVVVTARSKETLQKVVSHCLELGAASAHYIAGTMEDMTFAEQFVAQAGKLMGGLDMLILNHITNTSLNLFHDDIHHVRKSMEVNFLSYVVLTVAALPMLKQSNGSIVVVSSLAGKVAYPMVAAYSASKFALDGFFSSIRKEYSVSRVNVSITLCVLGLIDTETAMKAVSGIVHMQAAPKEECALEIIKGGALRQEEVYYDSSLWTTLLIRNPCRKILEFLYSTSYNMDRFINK

In general, IC50 refers to the concentration that gives 50% inhibition. `CC(O)c1ccc2c(c1)C[C@H]1N(C(=O)c3ccc4nc[nH]c4c3)CC[C@]2(C)C1(C)C` (stereo partly drawn) [Example 209, (3H-Benzoimidazol-5-yl)-[(2R,6S)-9-(1-hydroxy-ethyl)-6,11,11-trimethyl-1,2,5,6-tetrahydro-4H-2,6-methano-benzo[d]azocin-3-yl]-methanone] gave an IC50 (11β-HSD IC50 (nM)) of 40 nM.

Regarding `Cc1cc2nc[nH]c2cc1C(=O)N1CC[C@@]2(C)c3cccc(O)c3C[C@@H]1C2(C)C` [Example 210, [(2R,6S)-10-Hydroxy-6,11,11-trimethyl-1,2,5,6-tetrahydro-4H-2,6-methano-benzo[d]azocin-3-yl]-(6-methyl-3H-benzoimidazol-5-yl)-methanone], for the setting “11β-HSD IC50 (nM)”, inhibition was half-maximal at 68 nM (IC50).

Take `CC(O)c1ccc2c(c1)[C@]1(C)CCN(C(=O)c3ccc4nc[nH]c4c3)[C@H](C2)C1(C)C` (stereo partly drawn) [Example 211, (3H-Benzoimidazol-5-yl)-[(2R,6S)-8-(1-hydroxy-ethyl)-6,11,11-trimethyl-1,2,5,6-tetrahydro-4H-2,6-methano-benzo[d]azocin-3-yl]-methanone]: for the setting “11β-HSD IC50 (nM)”, the IC50 came out at 31 nM.

On to `COC(=O)C12CCN(C(=O)c3ccc4nc[nH]c4c3)C(Cc3ccc(O)cc31)C2` (stereo not shown) [Example 212, 3-(3H-Benzoimidazole-5-carbonyl)-8-hydroxy-2,3,4,5-tetrahydro-1H-2,6-methano-benzo[d]azocine-6-carboxylic acid methyl ester], for which, under “11β-HSD IC50 (nM)”, the IC50 came to 1940 nM.

For the setting “11β-HSD IC50 (nM)”, `O=C(c1ccc2nc[nH]c2c1)N1CCC2(C(=O)O)CC1Cc1ccc(O)cc12` (stereo not shown) [Example 213, 3-(3H-Benzoimidazole-5-carbonyl)-8-hydroxy-2,3,4,5-tetrahydro-1H-2,6-methano-benzo[d]azocine-6-carboxylic acid] showed a 50% inhibitory concentration (IC50) of 2970 nM.

For the compound `NC(=O)C12CCN(C(=O)c3ccc4nc[nH]c4c3)C(Cc3ccc(O)cc31)C2` (stereo not shown) [Example 214, 3-(3H-Benzoimidazole-5-carbonyl)-8-hydroxy-2,3,4,5-tetrahydro-1H-2,6-methano-benzo[d]azocine-6-carboxylic acid amide], where the note is “11β-HSD IC50 (nM)”, the half-maximal inhibitory concentration (IC50) is 5710 nM.

Consider `Cc1cc(C(=O)N2CC[C@@]3(C)c4cccc(O)c4C[C@@H]2C3(C)C)n(C)n1` [Example 215, (2,5-Dimethyl-2H-pyrazol-3-yl)-[(2R,6S)-10-hydroxy-6,11,11-trimethyl-1,2,5,6-tetrahydro-4H-2,6-methano-benzo[d]azocin-3-yl]-methanone], for which half-maximal inhibition (11β-HSD IC50 (nM)) (IC50) required 1730 nM.

Under “11β-HSD IC50 (nM)”, `CC1(C)[C@H]2Cc3c(O)cccc3[C@]1(C)CCN2C(=O)c1ccnn1-c1ccccc1` [Example 216, [(2R,6S)-10-Hydroxy-6,11,11-trimethyl-1,2,5,6-tetrahydro-4H-2,6-methano-benzo[d]azocin-3-yl]-(2-phenyl-2H-pyrazol-3-yl)-methanone] had an IC50 of 1720 nM.

`CC1(C)[C@H]2Cc3c(O)cccc3[C@]1(C)CCN2C(=O)c1csc2ccccc12` [Example 217, Benzo[b]thiophen-3-yl-[(2R,6S)-10-hydroxy-6,11,11-trimethyl-1,2,5,6-tetrahydro-4H-2,6-methano-benzo[d]azocin-3-yl]-methanone] displayed a 50% inhibitory concentration (IC50) (11β-HSD IC50 (nM)) of 410 nM.

Take `CC1(C)[C@H]2Cc3c(O)cccc3[C@]1(C)CCN2C(=O)c1cncn1-c1ccccc1` [Example 218, [(2R,6S)-10-Hydroxy-6,11,11-trimethyl-1,2,5,6-tetrahydro-4H-2,6-methano-benzo[d]azocin-3-yl]-(3-phenyl-3H-imidazol-4-yl)-methanone]: it took 2710 nM to reach half-maximal inhibition (11β-HSD IC50 (nM)) (IC50).

Regarding `CC1(C)[C@H]2Cc3c(O)cccc3[C@]1(C)CCN2C(=O)c1n[nH]c2c1CCCC2` [Example 219, [(2R,6S)-10-Hydroxy-6,11,11-trimethyl-1,2,5,6-tetrahydro-4H-2,6-methano-benzo[d]azocin-3-yl]-(4,5,6,7-tetrahydro-1H-indazol-3-yl)-methanone], for the setting “11β-HSD IC50 (nM)”, the midpoint of inhibition, the IC50, lay at 160 nM.

Under “11β-HSD IC50 (nM)”, `CC1(C)[C@H]2Cc3c(O)cccc3[C@]1(C)CCN2C(=O)c1n[nH]c2c1CCC2` [Example 220, [(2R,6S)-10-Hydroxy-6,11,11-trimethyl-1,2,5,6-tetrahydro-4H-2,6-methano-benzo[d]azocin-3-yl]-(1,4,5,6-tetrahydro-cyclopentapyrazol-3-yl)-methanone] returned an IC50 of 549 nM.

`CC1(C)[C@H]2Cc3c(O)cccc3[C@]1(C)CCN2C(=O)c1cc(-c2ccccc2)n[nH]1` [Example 221, [(2R,6S)-10-Hydroxy-6,11,11-trimethyl-1,2,5,6-tetrahydro-4H-2,6-methano-benzo[d]azocin-3-yl]-(5-phenyl-2H-pyrazol-3-yl)-methanone] gave a half-inhibitory concentration (IC50) (11β-HSD IC50 (nM)) of 2430 nM.

Consider `CCn1cc(C(=O)N2CC[C@@]3(C)c4cccc(O)c4C[C@@H]2C3(C)C)c2ccccc21` [Example 222, (1-Ethyl-1H-indol-3-yl)-[(2R,6S)-10-hydroxy-6,11,11-trimethyl-1,2,5,6-tetrahydro-4H-2,6-methano-benzo[d]azocin-3-yl]-methanone], for which inhibition (11β-HSD IC50 (nM)) was half-maximal at 124 nM (IC50).

`C[C@@H]1[C@H]2Cc3cc(C#N)c(O)cc3[C@]1(C)CCN2C(=O)c1ccc2nc[nH]c2c1` [Example 223, (2R,6R,11S)-3-(3H-Benzoimidazole-5-carbonyl)-8-hydroxy-6,11-dimethyl-1,2,3,4,5,6-hexahydro-2,6-methano-benzo[d]azocine-9-carbonitrile] came in with an IC50 (11β-HSD IC50 (nM)) of 106 nM.

Where the note is “11β-HSD IC50 (nM)”, `C[C@@H]1[C@H]2Cc3cc4nc[nH]c4cc3[C@]1(C)CCN2C(=O)c1ccc2nc[nH]c2c1` [Example 224, (3H-Benzoimidazol-5-yl)-[(6R,10R,12S)-5,6,7,8,9,10-hexahydro-10,12-dimethyl-6,10-methano-1H-imidazo[5,4-i][3]benzazocin-7-yl]-methanone] showed an IC50 of 21 nM.

For `Cc1cc(C(=O)N2CC[C@@]3(C)c4cccc(O)c4C[C@@H]2C3(C)C)cc2nc[nH]c12` [Example 225, [(2R,6S)-10-Hydroxy-6,11,11-trimethyl-1,2,5,6-tetrahydro-4H-2,6-methano-benzo[d]azocin-3-yl]-(7-methyl-1H-benzoimidazol-5-yl)-methanone], the IC50 (11β-HSD IC50 (nM)) was 98 nM.

As to `N#CC12CCN(C(=O)c3ccc4nc[nH]c4c3)C(Cc3ccc(O)cc31)C2` (stereo not shown) [Example 226, 3-(3H-Benzoimidazole-5-carbonyl)-8-hydroxy-2,3,4,5-tetrahydro-1H-2,6-methano-benzo[d]azocine-6-carbonitrile], under “11β-HSD IC50 (nM)”, the IC50 came to 1410 nM.

Under “11β-HSD IC50 (nM)”, `C[C@@H]1[C@H]2Cc3cc(C#N)ccc3[C@]1(C)CCN2C(=O)c1ccc2nc[nH]c2c1` [Example 227, (2R,6R,11S)-3-(3H-Benzoimidazole-5-carbonyl)-6,11-dimethyl-1,2,3,4,5,6-hexahydro-2,6-methano-benzo[d]azocine-9-carbonitrile] registered an IC50 of 25 nM.

`C[C@@H]1[C@H]2Cc3ccc(-c4nnn[nH]4)cc3[C@]1(C)CCN2C(=O)c1ccc2nc[nH]c2c1` [Example 228, (2R,6R,11S)-(3H-Benzoimidazol-5-yl)-[6,11-dimethyl-8-(1H-tetrazol-5-yl)-1,2,5,6-tetrahydro-4H-2,6-methano-benzo[d]azocin-3-yl]-methanone] gave an IC50 (11β-HSD IC50 (nM)) of 236 nM.

`CC(C)(O)c1ccc2c(c1)[C@]1(C)CCN(C(=O)c3ccc4nc[nH]c4c3)[C@H](C2)C1(C)C` [Example 229, (3H-Benzoimidazol-5-yl)-[(2R,6S)-8-(1-hydroxy-1-methyl-ethyl)-6,11,11-trimethyl-1,2,5,6-tetrahydro-4H-2,6-methano-benzo[d]azocin-3-yl]-methanone] displayed a 50% inhibitory concentration (IC50) (11β-HSD IC50 (nM)) of 68 nM.

As to `Cc1nc(-c2ccc3c(c2)[C@]2(C)CCN(C(=O)c4ccc5nc[nH]c5c4)[C@H](C3)[C@H]2C)no1` [Example 231, (3H-Benzoimidazol-5-yl)-[(2R,6R,11S)-6,11-dimethyl-8-(5-methyl-[1,2,4]oxadiazol-3-yl)-1,2,5,6-tetrahydro-4H-2,6-methano-benzo[d]azocin-3-yl]-methanone], the half-maximal inhibitory concentration (IC50) (11β-HSD IC50 (nM)) was 146 nM.

For `C[C@@H]1[C@H]2Cc3ccc(-c4ncon4)cc3[C@]1(C)CCN2C(=O)c1ccc2nc[nH]c2c1` [Example 232, (3H-Benzoimidazol-5-yl)-[(2R,6R,11S)-6,11-dimethyl-8-[1,2,4]oxadiazol-3-yl-1,2,5,6-tetrahydro-4H-2,6-methano-benzo[d]azocin-3-yl]-methanone], the midpoint of inhibition (11β-HSD IC50 (nM)), the IC50, lay at 132 nM.

Take `CC1(C)[C@H]2Cc3ccc(S(C)(=O)=O)cc3[C@]1(C)CCN2C(=O)c1ccc2nc[nH]c2c1` [Example 233, (3H-Benzoimidazol-5-yl)-[(2R,6S)-8-methanesulfonyl-6,11,11-trimethyl-1,2,5,6-tetrahydro-4H-2,6-methano-benzo[d]azocin-3-yl)-methanone]: the IC50 (11β-HSD IC50 (nM)) came to 144 nM.

Consider `CC1(C)[C@H]2Cc3c(cccc3S(C)(=O)=O)[C@]1(C)CCN2C(=O)c1ccc2nc[nH]c2c1` [Example 234, (3H-Benzoimidazol-5-yl)-[(2R,6S)-10-methanesulfonyl-6,11,11-trimethyl-1,2,5,6-tetrahydro-4H-2,6-methano-benzo[d]azocin-3-yl)-methanone], for which the 50% inhibitory concentration (IC50) (11β-HSD IC50 (nM)) came out at 3120 nM.

For the compound `CC1(C)[C@H]2Cc3cc4nccnc4cc3[C@]1(C)CCN2C(=O)c1ccc2nc[nH]c2c1` [Example 235, (3H-Benzoimidazol-5-yl)-[(7R,11S)-6,7,8,9,10,11-hexahydro-11,13,13-trimethyl-6,10-methano-pyrazino[2,3-i][3]benzazocin-8-yl]-methanone], the IC50 (11β-HSD IC50 (nM)) was 95 nM.

Take `C[C@H]1[C@H]2CC3=CC(C#N)CC=C3[C@]1(C)CCN2C(=O)c1ccc2nc[nH]c2c1` (stereo partly drawn) [Example 236, (2R,6R,11R)-3-(3H-Benzoimidazole-5-carbonyl)-6,11-dimethyl-1,2,3,4,5,6,8,9-octahydro-2,6-methano-benzo[d]azocine-9-carbonitrile]: the half-inhibitory concentration (IC50) (read-out: 11β-HSD IC50) was found to be 189 nM.

`CN(C)S(=O)(=O)c1ccc2c(c1)C[C@H]1N(C(=O)c3ccc4nc[nH]c4c3)CC[C@]2(C)C1(C)C` [Example 237, (2R,6S)-3-(3H-Benzoimidazole-5-carbonyl)-6,11,11-trimethyl-1,2,3,4,5,6-hexahydro-2,6-methano-benzo[d]azocine-9-sulfonic acid dimethylamide] returned an IC50 (11β-HSD IC50 (nM)) of 916 nM.
